From patent publication US8729089B2 (Gilead Sciences, Inc., priority 2006, dated 2014)
pEC50: −log10 of the molar value.

Columns and labels:
[1] = tested on: HCV replicon in human hepatoma Huh-7 cell line; test: Anti-HCV replicon assay (EC50, luciferase); type: cell-based; conditions: Hepatitis C virus, Huh-7, 72 h
Summary of the method: (§1)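 Huh-7 cells carrying an HCV replicon (6000/well) exposed to 3-fold serial compound dilutions for 3 days at 37 °C, final DMSO 0.5% where used. EC50 read as replicon luciferase luminescence after cell lysis; CC50 from CellTiter-Glo luminescence after 10 min at room temperature.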

[2] = CC50 assay (CellTiter-Glo) in Huh-7 HCV replicon cells; type: cell-based, human; conditions: human, 3 days incubation, CellTiter-Glo readout
Summary of the method: as §1

| Structure (SMILES) | pEC50 [1] | CC50 at 3 days [2] |
| --- | --- | --- |
| CCOc1nc(NCc2ccc(C(=O)N(C)C)cc2)nc2ccc(-c3ccc(F)cc3)nc12 [Example 262, 4-{[4-Ethoxy-6-(4-fluoro-phenyl)-pyrido[3,2-d]pyrimidin-2-ylamino]-methyl}-N,N-dimethyl-benzamide] | > 7.00 | > 25 µM |
| CCOc1nc(NCc2cccnc2)nc2ccc(-c3ccc(F)cc3)nc12 [Example 263, [4-Ethoxy-6-(4-fluoro-phenyl)-pyrido[3,2-d]pyrimidin-2-yl]-pyridin-3-ylmethyl-amine] | > 7.00 | > 25 µM |
| CCOc1nc(NCCOC)nc2ccc(-c3ccc(F)cc3)nc12 [Example 264, [4-Ethoxy-6-(4-fluoro-phenyl)-pyrido[3,2-d]pyrimidin-2-yl]-(2-methoxy-ethyl)-amine] | > 7.00 | > 25 µM |
| CCOc1nc(NCCS(N)(=O)=O)nc2ccc(-c3ccc(F)cc3)nc12 [Example 265, 2-[4-Ethoxy-6-(4-fluoro-phenyl)-pyrido[3,2-d]pyrimidin-2-ylamino]-ethanesulfonic acid amide] | > 7.00 | 5 to 25 µM |
| CCOc1nc(NCc2ncco2)nc2ccc(-c3ccc(F)cc3)nc12 [Example 266, [4-Ethoxy-6-(4-fluoro-phenyl)-pyrido[3,2-d]pyrimidin-2-yl]-oxazol-2-ylmethyl-amine] | > 7.00 | > 25 µM |
| CCOc1nc(NCc2ccc(-n3cncn3)cc2)nc2ccc(-c3ccc(F)cc3)nc12 [Example 267, [4-Ethoxy-6-(4-fluoro-phenyl)-pyrido[3,2-d]pyrimidin-2-yl]-(4-[1,2,4]triazol-1-yl-benzyl)-amine] | > 7.00 | > 25 µM |
| CCOc1nc(NCc2ccc(C(N)=O)cc2)nc2ccc(-c3ccc(F)cc3)nc12 [Example 268, 4-{[4-Ethoxy-6-(4-fluoro-phenyl)-pyrido[3,2-d]pyrimidin-2-ylamino]-methyl}-benzamide] | > 7.00 | 5 to 25 µM |
| CCOc1nc(NCc2ccc(CS(=O)(=O)NC)cc2)nc2ccc(-c3ccc(F)cc3)nc12 [Example 269, C-(4-{[4-Ethoxy-6-(4-fluoro-phenyl)-pyrido[3,2-d]pyrimidin-2-ylamino]-methyl}-phenyl)-N-methyl-methanesulfonamide] | > 7.00 | 5 to 25 µM |
| CCOc1nc(NCc2ccc(CS(N)(=O)=O)cc2)nc2ccc(-c3ccc(F)cc3)nc12 [Example 270] | > 7.00 | 5 to 25 µM |
| CCOc1nc(NCc2ccc(NS(C)(=O)=O)cc2)nc2ccc(-c3ccc(F)cc3)nc12 [Example 271, N-(4-{[4-Ethoxy-6-(4-fluoro-phenyl)-pyrido[3,2-d]pyrimidin-2-ylamino]-methyl}-phenyl)-methanesulfonamide] | > 7.00 | 5 to 25 µM |
| NC(=O)c1ccc(-c2ccc3nc(NCc4ccc(F)cc4)nc(NCC(F)(F)F)c3n2)cc1 [Example 272, 4-[2-(4-Fluoro-benzylamino)-4-(2,2,2-trifluoro-ethylamino)-pyrido[3,2-d]pyrimidin-6-yl]-benzamide] | > 7.00 | < 5 µM |
| CN(CCS(C)(=O)=O)c1nc(NCc2ccc(F)cc2)nc2ccc(-c3ccc(C(N)=O)cc3)nc12 [Example 273, 4-{2-(4-Fluoro-benzylamino)-4-[(2-methanesulfonyl-ethyl)-methyl-amino]-pyrido[3,2-d]pyrimidin-6-yl}-benzamide] | > 7.00 | 5 to 25 µM |
| CS(=O)(=O)CCNc1nc(NCc2ccc(F)cc2)nc2ccc(-c3ccc(C(N)=O)cc3)nc12 [Example 274, 4-[2-(4-Fluoro-benzylamino)-4-(2-methanesulfonyl-ethylamino)-pyrido[3,2-d]pyrimidin-6-yl]-benzamide] | > 7.00 | < 5 µM |
| O=C1C(O)CCN1c1ccc(-c2ccc3nc(NCc4ccc(F)cc4)nc(NCC(F)(F)F)c3n2)cc1 (stereo not drawn) [Example 275, 1-{4-[2-(4-Fluoro-benzylamino)-4-(2,2,2-trifluoro-ethylamino)-pyrido[3,2-d]pyrimidin-6-yl]-phenyl}-3-hydroxy-pyrrolidin-2-one] | > 7.00 | < 5 µM |
| CS(=O)(=O)N(CCO)c1cccc(-c2ccc3nc(NCc4ccc(F)cc4)nc(NCC(F)(F)F)c3n2)c1 [Example 276, N-{3-[2-(4-Fluoro-benzylamino)-4-(2,2,2-trifluoro-ethylamino)-pyrido[3,2-d]pyrimidin-6-yl]-phenyl}-N-(2-hydroxy-ethyl)-methanesulfonamide] | > 7.00 | 5 to 25 µM |
| CC(C)(N)C(=O)Nc1ccc(-c2ccc3nc(NCc4ccc(F)cc4)nc(NCC(F)(F)F)c3n2)cc1 [Example 277, 2-Amino-N-{4-[2-(4-fluoro-benzylamino)-4-(2,2,2-trifluoro-ethylamino)-pyrido[3,2-d]pyrimidin-6-yl]-phenyl}-2-methyl-propionamide] | > 7.00 | < 5 µM |
| O=C(Nc1ccc(-c2ccc3nc(NCc4ccc(F)cc4)nc(NCC(F)(F)F)c3n2)cc1)C1(O)CC1 [Example 278, 1-Hydroxy-cyclopropanecarboxylic acid {4-[2-(4-fluoro-benzylamino)-4-(2,2,2-trifluoro-ethylamino)-pyrido[3,2-d]pyrimidin-6-yl]-phenyl}-amide] | > 7.00 | 5 to 25 µM |
| CN(CCS(C)(=O)=O)c1nc(NCc2ccc(F)cc2)nc2ccc(-c3cccc(N(CCO)S(C)(=O)=O)c3)nc12 [Example 279, N-(3-{2-(4-Fluoro-benzylamino)-4-[(2-methanesulfonyl-ethyl)-methyl-amino]-pyrido[3,2-d]pyrimidin-6-yl}-phenyl)-N-(2-hydroxy-ethyl)-methanesulfonamide] | > 7.00 | 5 to 25 µM |
| CN(CCS(C)(=O)=O)c1nc(NCc2ccc(F)cc2)nc2ccc(-c3ccc(NC(=O)C(C)(C)N)cc3)nc12 [Example 280, 2-Amino-N-(4-{2-(4-fluoro-benzylamino)-4-[(2-methanesulfonyl-ethyl)-methyl-amino]-pyrido[3,2-d]pyrimidin-6-yl}-phenyl)-2-methyl-propionamide] | > 7.00 | 5 to 25 µM |
| CN(CCS(C)(=O)=O)c1nc(NCc2ccc(F)cc2)nc2ccc(-c3ccc(NC(=O)C4(O)CC4)cc3)nc12 [Example 281, 1-Hydroxy-cyclopropanecarboxylic acid (4-{2-(4-fluoro-benzylamino)-4-[(2-methanesulfonyl-ethyl)-methyl-amino]-pyrido[3,2-d]pyrimidin-6-yl}-phenyl)-amide] | > 7.00 | 5 to 25 µM |
| CS(=O)(=O)CCNc1nc(NCc2ccc(F)cc2)nc2ccc(-c3cnc(N)s3)nc12 [Example 282, 6-(2-Amino-thiazol-5-yl)-N2-(4-fluoro-benzyl)-N4-(2-methanesulfonyl-ethyl)-pyrido[3,2-d]pyrimidine-2,4-diamine] | > 7.00 | > 25 µM |
| N#CC1(NC(=O)c2ccc(-c3ccc4nc(NCc5ccc(F)cc5)nc(O[C@H]5CCOC5)c4n3)cc2)CC1 [Example 283, N-(1-Cyano-cyclopropyl)-4-[2-(4-fluoro-benzylamino)-4-(tetrahydro-furan-3-yloxy)-pyrido[3,2-d]pyrimidin-6-yl]-benzamide] | > 7.00 | < 5 µM |
| CC(C)Nc1cnn(-c2ccc3nc(NCc4ccc(S(N)(=O)=O)cc4)nc(NCC(F)(F)F)c3n2)c1 [Example 284, 4-{[6-(4-Isopropylamino-pyrazol-1-yl)-4-(2,2,2-trifluoro-ethylamino)-pyrido[3,2-d]pyrimidin-2-ylamino]-methyl}-benzenesulfonamide] | > 7.00 | > 25 µM |
| NS(=O)(=O)c1ccc(CNc2nc(NCC(F)(F)F)c3nc(-n4cncn4)ccc3n2)cc1 [Example 285, 4-{[6-[1,2,4]Triazol-1-yl-4-(2,2,2-trifluoro-ethylamino)-pyrido[3,2-d]pyrimidin-2-ylamino]-methyl}-benzenesulfonamide] | > 7.00 | > 25 µM |
| NS(=O)(=O)c1ccc(CNc2nc(NCC(F)(F)F)c3nc(-n4ccnc4)ccc3n2)cc1 [Example 286, 4-{[6-Imidazol-1-yl-4-(2,2,2-trifluoro-ethylamino)-pyrido[3,2-d]pyrimidin-2-ylamino]-methyl}-benzenesulfonamide] | > 7.00 | 5 to 25 µM |
| NS(=O)(=O)c1ccc(CNc2nc(NCC(F)(F)F)c3nc(-c4ccc(=O)[nH]c4)ccc3n2)cc1 [Example 287, 4-{[6-(6-Oxo-1,6-dihydro-pyridin-3-yl)-4-(2,2,2-trifluoro-ethylamino)-pyrido[3,2-d]pyrimidin-2-ylamino]-methyl}-benzenesulfonamide] | > 7.00 | > 25 µM |
| NS(=O)(=O)c1ccc(CNc2nc(NCC(F)(F)F)c3nc(-c4cc[nH]c(=O)c4)ccc3n2)cc1 [Example 288, 4-{[6-(2-Oxo-1,2-dihydro-pyridin-4-yl)-4-(2,2,2-trifluoro-ethylamino)-pyrido[3,2-d]pyrimidin-2-ylamino]-methyl}-benzenesulfonamide] | > 7.00 | > 25 µM |
| NS(=O)(=O)c1ccc(CNc2nc(C3CC3)c3nc(-c4ccc(F)c(S(N)(=O)=O)c4)ccc3n2)cc1 [Example 289, 5-[4-Cyclopropyl-2-(4-sulfamoyl-benzylamino)-pyrido[3,2-d]pyrimidin-6-yl]-2-fluoro-benzenesulfonamide] | > 7.00 | 5 to 25 µM |
| NC(=O)Nc1ccc(-c2ccc3nc(NCc4ccc(S(N)(=O)=O)cc4)nc(C4CC4)c3n2)cc1 [Example 290, 4-{[4-Cyclopropyl-6-(4-ureido-phenyl)-pyrido[3,2-d]pyrimidin-2-ylamino]-methyl}-benzenesulfonamide] | > 7.00 | 5 to 25 µM |
| NS(=O)(=O)c1ccc(CNc2nc(C3CC3)c3nc(-c4cccc(S(N)(=O)=O)c4)ccc3n2)cc1 [Example 291, 4-{[4-Cyclopropyl-6-(3-(aminosulfonyl)-phenyl)-pyrido[3,2-d]pyrimidin-2-ylamino]-methyl}-benzenesulfonamide] | > 7.00 | < 5 µM |
